According to the supplement of paper PMC4862054:
Values joined by “and” are separate entries in the source; they are usually repeats but may differ in a detail not shown here. Equal entries are not always repeated.

How the values were obtained:
CAL-148 [1] = assay: normalised viability (% of control), CellTiter-Blue; higher = more viable cells (about 100 = DMSO control); conditions: incubation time: 72 h
Experimental: (§1)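 DSRT, CellTiter-Blue viability, 72 h incubation. Signal is normalised to DMSO and benzethonium chloride controls. Value is the normalised response at dose 7.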

CAL-51 [2] = assay: as above; conditions: incubation time: 72 h
Experimental: as §1

CAL-85-1 [3] = assay: as above; conditions: incubation time: 72 h
Experimental: as §1

DU-4475 [4] = assay: as above; conditions: incubation time: 72 h
Experimental: as §1

HDQ-P1 [5] = assay: as above; conditions: incubation time: 72 h
Experimental: as §1

MDA-MB-453 [6] = assay: as above; conditions: incubation time: 72 h
Experimental: as §1

BT-474 [7] = assay: normalised response (% of control), CellTox Green; higher = less cell death (100 = DMSO, 0 = benzethonium chloride kill control); conditions: incubation time: 72 h
How it was run: (§2)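 Each entry is the normalised signal at a single concentration within a series. The series comprised 5 concentrations in 10-fold steps over a compound-specific 10,000-fold range, placed in 384-well plates into which breast cancer cell lines were seeded as 20 µl suspension and incubated 72 h. CellTox Green (485/520 nm) fluorescence and then CellTiter-Glo luminescence were read, with signals normalised per plate to 0.1 % DMSO (100) and a positive kill control (0).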

BT-549 = assay: as above; conditions: incubation time: 72 h
How it was run: as §2

CAL-120 = assay: as above; conditions: incubation time: 72 h
How it was run: as §2

CAL-148 [8] = assay: as above; conditions: incubation time: 72 h
How it was run: as §2

CAL-51 [9] = assay: as above; conditions: incubation time: 72 h
How it was run: as §2

CAL-85-1 [10] = assay: as above; conditions: incubation time: 72 h
How it was run: as §2

DU-4475 [11] = assay: as above; conditions: incubation time: 72 h
How it was run: as §2

HCC1143 = assay: as above; conditions: incubation time: 72 h
How it was run: as §2

HCC1599 = assay: as above; conditions: incubation time: 72 h
How it was run: as §2

HCC1937 = assay: as above; conditions: incubation time: 72 h
How it was run: as §2

HDQ-P1 [12] = assay: as above; conditions: incubation time: 72 h
How it was run: as §2

Hs578T = assay: as above; conditions: incubation time: 72 h
How it was run: as §2

MCF-10A = assay: as above; conditions: incubation time: 72 h
How it was run: as §2

MDA-MB-231 = assay: as above; conditions: incubation time: 72 h
How it was run: as §2

MDA-MB-436 = assay: as above; conditions: incubation time: 72 h
How it was run: as §2

MDA-MB-453 [13] = assay: as above; conditions: incubation time: 72 h
How it was run: as §2

MDA-MB-468 [14] = assay: as above; conditions: incubation time: 72 h
How it was run: as §2

MFM-223 = assay: as above; conditions: incubation time: 72 h
How it was run: as §2

BT-474 [15] = conditions: 72 h
How it was run: (§3)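 For viability and cell death testing, 384-well plates carried compound at 5 concentrations in 10-fold steps over a compound-specific 10,000-fold range, and breast cancer cell lines were seeded in 20 µl suspension. After 72 h incubation, cell death was read by CellTox Green fluorescence (485/520 nm) before viability was read by CellTiter-Glo luminescence. EC50 was fitted from the dose-response curves and censored at the top concentration. Normalisation on each plate was to 0.1 % DMSO and a positive kill control.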

HDQ-P1 [16] = conditions: 72 h
How it was run: as §3

MDA-MB-468 [17] = conditions: 72 h
How it was run: as §3

Structure (SMILES)	normalised viability (CAL-148 [1])	normalised viability (CAL-51 [2])	normalised viability (CAL-85-1 [3])	normalised viability (DU-4475 [4])	normalised viability (HDQ-P1 [5])	normalised viability (MDA-MB-453 [6])	normalised response (BT-474 [7]) [%]	normalised response (BT-549) [%]	normalised response (CAL-120) [%]	normalised response (CAL-148 [8]) [%]	normalised response (CAL-51 [9]) [%]	normalised response (CAL-85-1 [10]) [%]	normalised response (DU-4475 [11]) [%]	normalised response (HCC1143) [%]	normalised response (HCC1599) [%]	normalised response (HCC1937) [%]	normalised response (HDQ-P1 [12]) [%]	normalised response (Hs578T) [%]	normalised response (MCF-10A) [%]	normalised response (MDA-MB-231) [%]	normalised response (MDA-MB-436) [%]	normalised response (MDA-MB-453 [13]) [%]	normalised response (MDA-MB-468 [14]) [%]	normalised response (MFM-223) [%]	EC50, CellTiter-Glo (BT-474 [15]) [nM]	EC50, CellTiter-Glo (HDQ-P1 [16]) [nM]	EC50, CellTiter-Glo (MDA-MB-468 [17]) [nM]
Cn1cnc2c(F)c(Nc3ccc(Br)cc3Cl)c(C(=O)NOCCO)cc21 [Selumetinib] (1000 nM)	92.8%	91.3%	64.8%	1.82%	75.2%	104%	96.9	116	81.4	99.2	103	77.5	60.8	70.1	89.4	88.9	77.2	100	90.4	43.8	80.4	104	108	93.2			
Cn1cc(C2=Nc3cc(NC(=O)C(N)C4CCCCC4)cc4c3C2=CNNC4=O)cn1 (stereo not given)																									2290	9680	396
Nc1nc2[nH]cnc2c(=S)[nH]1 [Thioguanine] (1000 nM)	93.4%	108%	79.2%	117%	85.2%	95.2%	96.4	108	103	94	102	112	104		97.8	114	109	103	98.7	48.4	101	106	121	92.8			
Cn1cc(C2=Nc3cc(NC(=O)C(N)C4CCCCC4)cc4c3C2=CNNC4=O)cn1 (stereo not given) (1000 nM)	62.4%	87.8%	64%	72.1%	67.1%	36.9%	92.3	95.4	80.1	86.4	56	45.8	95.2	4.8	73.3	113	97.4	-123	-64.4	54.1	85	91.8	126	87.6			
COc1cc2c(cc1O)CC[C@@H]1[C@@H]2CC[C@]2(C)[C@@H](O)CC[C@@H]12 [2-methoxyestradiol]																									573	7460	2800
Cc1sc2c(c1C)C(c1ccc(Cl)cc1)=N[C@@H](CC(=O)OC(C)(C)C)c1nnc(C)n1-2 [(+)JQ1] (1000 nM)	56.5%	84.1%	56.7%	12.4%	106%	21.9%	94.4	97.4	87.5	67.3	90.6	64.5	88.2	-3.05	95.5	59.3	83.5	98.9	108	131	66.8	104	85.6	98.1			
CC(C)(C)c1cnc(CSc2cnc(NC(=O)C3CCNCC3)s2)o1 [SNS-032]																									112	50	36
Cc1sc2c(c1C)C(c1ccc(Cl)cc1)=N[C@@H](CC(=O)OC(C)(C)C)c1nnc(C)n1-2 [(+)JQ1]																									113	129	487
Nc1ncn([C@@H]2O[C@H](CO)[C@@H](O)[C@H]2O)c(=O)n1 [Azacitidine]																									2290	2470	574
CC(=O)O[C@@]12CO[C@@H]1C[C@H](O)[C@@]1(C)C(=O)[C@H](O)C3=C(C)[C@@H](OC(=O)[C@H](O)[C@@H](NC(=O)OC(C)(C)C)c4ccccc4)C[C@@](O)([C@@H](OC(=O)c4ccccc4)[C@H]21)C3(C)C [Docetaxel] (100 nM)	22.7% and 19.8%	18.2% and 13.8%	32.9% and 29.5%	13.8% and 9.08%	34.2% and 38%	26.2% and 23.4%	57.1	69.3	86.7	83.2	16.6	19.7	95.2	76	82.8	102	75.8	49.4	34.9	-12.5	69	100	145	59.5			
CC1(C)CNc2cc(NC(=O)c3cccnc3NCc3ccncc3)ccc21 [Motesanib]																											> 10000
CC(=O)N(O)CCCCCNC(=O)CCC(=O)N(O)CCCCCNC(=O)CCC(=O)N(O)CCCCCN [Deferoxamine]																										1850	815
CC(=O)O[C@@]12CO[C@@H]1C[C@H](O)[C@@]1(C)C(=O)[C@H](O)C3=C(C)[C@@H](OC(=O)[C@H](O)[C@@H](NC(=O)OC(C)(C)C)c4ccccc4)C[C@@](O)([C@@H](OC(=O)c4ccccc4)[C@H]21)C3(C)C [Docetaxel]																									7.47	2.08	0.68
CC(=O)c1c(C)c2cnc(Nc3ccc(N4CCNCC4)cn3)nc2n(C2CCCC2)c1=O [Palbociclib]																									352		181
O=NN(CCCl)C(=O)NCCCl [Carmustine] (1000 nM)	105%	96.9%	88.4%	102%	105%	105%	97.3	96.9	95.8	98	115	102	96.9	105	94.9	112	99	106	92.1	105	99.5	103	86	66.4			
CC(C)(C)c1cnc(CSc2cnc(NC(=O)C3CCNCC3)s2)o1 [SNS-032] (1000 nM)	18.8%	31.5%	2.84%	2.63%	12.6%	11.2%	90	80.4	88.6	96.3	55.9	17.1	86.1	86.3	71.2	115	62.6	25	24	-97.4	102	99.2	84	63.5			
O=C1CN2Cc3c(ccc(Cl)c3Cl)N=C2N1 [Anagrelide]																									> 10000		
CC1(C)CCC(CN2CCN(c3ccc(C(=O)NS(=O)(=O)c4ccc(NCC5CCOCC5)c([N+](=O)[O-])c4)c(Oc4cnc5[nH]ccc5c4)c3)CC2)=C(c2ccc(Cl)cc2)C1 [ABT-199]																											> 10000
COc1cc2c(cc1O)CC[C@@H]1[C@@H]2CC[C@]2(C)[C@@H](O)CC[C@@H]12 [2-methoxyestradiol] (1000 nM)	89.7%	107%	86.8%	89.5%	83%	53.3%	77.8	96.5	91.8	85.8	98.3	83.5	96.6	99.8	93.5	111	108	84.6	98.5	34.1	85.5	108	92.5	64.7			
CC1=C2C[C@H]3[C@@H](CC=C4C[C@@H](O)CC[C@@]43C)[C@@H]2CC[C@]12O[C@@H]1C[C@H](C)CN[C@H]1[C@H]2C [Cyclopamine] (1000 nM)	119%	110%	92.2%	121%	127%	86.8%	101	108	101	95.1	95.5	101	101	100	104	70	96.9	104	108	119	99.3	103	78.1	75.1			
